Measured values as given in US11142547B2, “Polypeptide and use thereof” (Genoimmune Therapeutics Co., Ltd., priority 2016, dated 2021).

System: human non-small cell lung adenocarcinoma cell line H2087—polypeptide FLLGNLFFV (SEQ ID NO:1)
Test: Polypeptide + Freund's adjuvant vaccine in subcutaneous tumor-modeled mice
Assay type: in vivo, NOD/SCID mice
Details: adjuvant+polypeptide 100 μg s.c., vs adjuvant alone and adjuvant+wild-type polypeptide groups; FIG. 5
Procedure: The human non-small cell lung adenocarcinoma cell line NCI-H2087 which is HLA-A*0201 positive was purchased from ATCC (Cat. No.: CRL-5922). The cell line NCI-H2087 was incubated in the Dulbecco's Modified Eagle Medium (DMEM) containing 10% fetal calf serum, 100 U/mL penicillin and 100 U/mL streptomycin in an incubator under 37° C. and 5% CO2, and subsequently infected with the lentivirus expressing the mutant polypeptide (depicted in […], SEQ ID NO:1) as prepared in 6.1. Afterwards, the infected cells were incubated with the Puromycin antibiotic for a certain duration to screen out those viable infected cells, i.e., obtaining the human non-small cell lung adenocarcinoma cell line H2087 which expresses the mutant polypeptide (depicted in […], SEQ ID NO:1) and named as the human non-small cell lung adenocarcinoma cell line H2087—polypeptide […] (SEQ ID NO:1).
After isolated with Ficoll solution from 600 to 900 ml anticoagulant peripheral blood from a healthy volunteer, the collected PBMCs in a concentration of 2×10^7 cells/0.5 ml were intraperitoneally injected into each of 300 NOD SCID mice without immune leakage, so as to reconstruct a human immune system in the NOD SCID mice, with the mice after 4 weeks selected for subsequent inoculation of the human non-small cell lung adenocarcinoma cell line H2087—polypeptide […] obtained in 6.2.
The human non-small cell lung adenocarcinoma cell line H2087—polypeptide […] (SEQ ID NO:1) obtained in 6.2 was incubated in DMEM medium containing 10% fetal calf serum, 100 U/mL penicillin and 100 U/mL streptomycin in an incubator under 37° C. and 5% CO2, and then the cells were centrifuged at 3000 rpm for collection. The collected cells were washed with sterile physiological saline three times, and then diluted appropriately. To 40 μl tumor cell suspension, 10 μl 0.4% […] was added for staining, subsequently the tumor cell suspension in a concentration of 1×10^8 cells/ml was prepared after counting under microscope. 100 μl of the tumor cell suspension was inoculated into each of the NOD/SCID mice by subcutaneous injection at 4 weeks post immune reconstruction in 6.3, with daily observation of the presence/absence of infection at inoculation sites, the increase/decrease of tumor size (in the case of presence of a tumor), and measurement of the major axis (a) and the minor axis (b) of a tumor by a vernier caliper every 2 or 3 days (where the tumor size=a×b×b/2). After 7 days from inoculation, a tumor in a size of rice grain was touchable at the inoculation site. After that, the subcutaneous tumor-modeled NOD/SCID mice (modeled with H2087—polypeptide […] (SEQ ID NO:1)) were treated with a polypeptide+complete Freund's adjuvant vaccine, a polypeptide+DCs vaccine, a lentivirus-infected DCs vaccine and a DC-CTL vaccine respectively, with the tumor size and mouse survival rate observed and recorded every 2 days.
The subcutaneous tumor-modeled NOD/SCID mice obtained in 6.4 of the example 6 were divided into 6 groups randomly as below, with 6 mice per group:
Except for the adjuvant alone group, mice in other 5 groups received first immunization, by subcutaneous injection at two sites of the mouse back with 100 μg wild-type polypeptide (depicted in […], SEQ ID NO:5), 100 μg mutant polypeptide (depicted in […], SEQ ID NO:1), 100 μg mutant polypeptide's variant (depicted in […], SEQ ID NO:2), 100 μg mutant polypeptide's variant (depicted in […], SEQ ID NO:3), and 100 μg mutant polypeptide's variant (depicted in […], SEQ ID NO:4), respectively, each of which was mixed with 150 μl Freund's complete adjuvant in PBS to a final volume of 300 μl. After 2 weeks, differently-immunized mice in 5 groups received respective same-dosage booster immunizations at 2 week interval for 4 times in total, with incomplete Freund's adjuvant for the latter three immunizations. […]

Sequence	Mouse survival period	Tumor growth
FLLGNLFFL	prolonging mouse survival period effectively	inhibiting tumor growth
FLLGNLFFV	prolonging mouse survival period effectively	inhibiting tumor growth
FMLGNLFFL	prolonging mouse survival period effectively	inhibiting tumor growth
FMLGNLFFV	prolonging mouse survival period effectively	inhibiting tumor growth
